Results: PubChem BioAssay (NCI)
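The compound was tested at five concentrations on cells cultured in 96-well plates, with a 48-hour exposure period. GI50 marks 50% less growth. TGI: concentration producing complete growth inhibition.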

Assays:
Assay in all cases: inhibition of tumour cell growth, NCI panel, 48 h
CAKI-1 renal = system: CAKI-1 renal
A549 NSCLC = system: A549 NSCLC
T-47D breast = system: T-47D breast
HOP-92 NSCLC = system: HOP-92 NSCLC
PC-3 prostate = system: PC-3 prostate
SK-MEL-28 melanoma = system: SK-MEL-28 melanoma
DU-145 prostate = system: DU-145 prostate
HCT-116 colon = system: HCT-116 colon
SN12C renal = system: SN12C renal
SK-MEL-2 melanoma = system: SK-MEL-2 melanoma
RPMI-8226 leukemia = system: RPMI-8226 leukemia
MDA-MB-435 = system: MDA-MB-435
U251 CNS = system: U251 CNS
HL-60(TB) leukemia = system: HL-60(TB) leukemia
EKVX NSCLC = system: EKVX NSCLC
A498 renal = system: A498 renal
OVCAR-4 ovarian = system: OVCAR-4 ovarian
ACHN renal = system: ACHN renal
HCC-2998 colon = system: HCC-2998 colon
IGROV1 ovarian = system: IGROV1 ovarian
NCI-H460 lung = system: NCI-H460 lung
M14 melanoma = system: M14 melanoma
NCI/ADR-RES ovarian = system: NCI/ADR-RES ovarian
SF-268 CNS = system: SF-268 CNS
K-562 leukemia = system: K-562 leukemia
SF-539 CNS = system: SF-539 CNS
COLO 205 colon = system: COLO 205 colon
SK-MEL-5 melanoma = system: SK-MEL-5 melanoma
786-0 renal = system: 786-0 renal
SNB-19 CNS = system: SNB-19 CNS
OVCAR-3 ovarian = system: OVCAR-3 ovarian
MDA-MB-231 breast = system: MDA-MB-231 breast
RXF 393 renal = system: RXF 393 renal
SF-295 CNS = system: SF-295 CNS
HS 578T breast = system: HS 578T breast
UO-31 renal = system: UO-31 renal
BT-549 breast = system: BT-549 breast
SNB-75 CNS = system: SNB-75 CNS
HOP-62 NSCLC = system: HOP-62 NSCLC
OVCAR-8 ovarian = system: OVCAR-8 ovarian
HT29 colon = system: HT29 colon
TK-10 renal = system: TK-10 renal
MOLT-4 leukemia = system: MOLT-4 leukemia
KM12 colon = system: KM12 colon
CCRF-CEM leukemia = system: CCRF-CEM leukemia
HCT-15 colon = system: HCT-15 colon
NCI-H23 lung = system: NCI-H23 lung
OVCAR-5 ovarian = system: OVCAR-5 ovarian
NCI-H226 lung = system: NCI-H226 lung
UACC-62 melanoma = system: UACC-62 melanoma
SW-620 colon = system: SW-620 colon
NCI-H522 lung = system: NCI-H522 lung
UACC-257 melanoma = system: UACC-257 melanoma
MCF7 breast = system: MCF7 breast
SR leukemia = system: SR leukemia
LOX IMVI melanoma = system: LOX IMVI melanoma
SK-OV-3 ovarian = system: SK-OV-3 ovarian

Structure (SMILES): Cc1oc2nc(N(C)C)nc(NN)c2c1C
- TGI (CAKI-1 renal): > 100 µM
- TGI (A549 NSCLC): > 100 µM
- TGI (T-47D breast): > 100 µM
- TGI (HOP-92 NSCLC): > 100000 nM
- TGI (PC-3 prostate): > 100 µM
- TGI (SK-MEL-28 melanoma): > 100 µM
- TGI (DU-145 prostate): > 100 µM
- TGI (HCT-116 colon): > 100 µM
- TGI (SN12C renal): > 100 µM
- TGI (SK-MEL-2 melanoma): > 100 µM
- TGI (RPMI-8226 leukemia): > 100 µM
- TGI (MDA-MB-435): > 100 µM
- TGI (U251 CNS): > 100 µM
- TGI (HL-60(TB) leukemia): > 100000 nM
- TGI (EKVX NSCLC): > 100 µM
- TGI (A498 renal): > 100 µM
- TGI (OVCAR-4 ovarian): > 100 µM
- TGI (ACHN renal): > 100 µM
- TGI (HCC-2998 colon): > 100 µM
- TGI (IGROV1 ovarian): > 100 µM
- TGI (NCI-H460 lung): > 100 µM
- TGI (M14 melanoma): > 100 µM
- TGI (NCI/ADR-RES ovarian): > 100 µM
- TGI (SF-268 CNS): > 100 µM
- TGI (K-562 leukemia): > 100 µM
- TGI (SF-539 CNS): > 100 µM
- TGI (COLO 205 colon): > 100 µM
- TGI (SK-MEL-5 melanoma): > 100 µM
- TGI (786-0 renal): > 100 µM
- TGI (SNB-19 CNS): > 100 µM
- TGI (OVCAR-3 ovarian): > 100000 nM
- TGI (MDA-MB-231 breast): > 100 µM
- TGI (RXF 393 renal): > 100 µM
- TGI (SF-295 CNS): > 100 µM
- TGI (HS 578T breast): > 100 µM
- TGI (UO-31 renal): > 100 µM
- TGI (BT-549 breast): > 100 µM
- TGI (SNB-75 CNS): > 100 µM
- TGI (HOP-62 NSCLC): > 100 µM
- TGI (OVCAR-8 ovarian): > 100 µM
- TGI (HT29 colon): > 100 µM
- TGI (TK-10 renal): > 100 µM
- TGI (MOLT-4 leukemia): > 100000 nM
- TGI (KM12 colon): > 100 µM
- TGI (CCRF-CEM leukemia): > 100 µM
- TGI (HCT-15 colon): > 100 µM
- TGI (NCI-H23 lung): > 100 µM
- TGI (OVCAR-5 ovarian): > 100 µM
- TGI (NCI-H226 lung): > 100 µM
- TGI (UACC-62 melanoma): > 100 µM
- TGI (SW-620 colon): > 100 µM
- TGI (NCI-H522 lung): > 100 µM
- TGI (UACC-257 melanoma): > 100 µM

Structure (SMILES): O=[N+]([O-])c1ccc(N=Nc2c(Cl)cc(O)cc2Cl)cc1
- GI50 (CAKI-1 renal): 2260 nM
- TGI (CAKI-1 renal): 5.79 µM
- GI50 (A549 NSCLC): 2880 nM
- TGI (A549 NSCLC): 11.8 µM
- GI50 (T-47D breast): 657 nM
- TGI (T-47D breast): 5.46 µM
- GI50 (HOP-92 NSCLC): 285 nM
- TGI (HOP-92 NSCLC): 2010 nM
- GI50 (MCF7 breast): 1170 nM
- TGI (MCF7 breast): 6.43 µM
- GI50 (PC-3 prostate): 2720 nM
- TGI (PC-3 prostate): 15.4 µM
- GI50 (SK-MEL-28 melanoma): 1920 nM
- TGI (SK-MEL-28 melanoma): 8.55 µM
- GI50 (DU-145 prostate): 2450 nM
- TGI (DU-145 prostate): 11.9 µM
- GI50 (HCT-116 colon): 722 nM
- TGI (HCT-116 colon): 3.08 µM
- GI50 (SN12C renal): 875 nM
- TGI (SN12C renal): 10.3 µM
- GI50 (SK-MEL-2 melanoma): 1660 nM
- TGI (SK-MEL-2 melanoma): 4.39 µM
- GI50 (MDA-MB-435): 943 nM
- TGI (MDA-MB-435): 3.16 µM
- GI50 (SR leukemia): 421 nM
- TGI (SR leukemia): 6.09 µM
- GI50 (U251 CNS): 977 nM
- TGI (U251 CNS): 11.2 µM
- GI50 (HL-60(TB) leukemia): 382 nM
- TGI (HL-60(TB) leukemia): 2860 nM
- GI50 (EKVX NSCLC): 1940 nM
- TGI (EKVX NSCLC): 5.57 µM
- GI50 (A498 renal): 1730 nM
- TGI (A498 renal): 4.6 µM
- GI50 (OVCAR-4 ovarian): 1390 nM
- TGI (OVCAR-4 ovarian): 12 µM
- GI50 (ACHN renal): 1010 nM
- TGI (ACHN renal): 11.6 µM
- GI50 (HCC-2998 colon): 3.15 µM
- TGI (HCC-2998 colon): 10.8 µM
- GI50 (LOX IMVI melanoma): 1730 nM
- TGI (LOX IMVI melanoma): 10.6 µM
- GI50 (NCI-H460 lung): 1410 nM
- TGI (NCI-H460 lung): 4.77 µM
- GI50 (M14 melanoma): 1950 nM
- TGI (M14 melanoma): 4.86 µM
- GI50 (NCI/ADR-RES ovarian): 863 nM
- TGI (NCI/ADR-RES ovarian): 8.49 µM
- GI50 (SF-268 CNS): 1180 nM
- TGI (SF-268 CNS): 7.73 µM
- GI50 (K-562 leukemia): 605 nM
- TGI (K-562 leukemia): > 100 µM
- GI50 (SF-539 CNS): 3.1 µM
- TGI (SF-539 CNS): 30.6 µM
- GI50 (COLO 205 colon): 1820 nM
- TGI (COLO 205 colon): 4.17 µM
- GI50 (SK-MEL-5 melanoma): 1480 nM
- TGI (SK-MEL-5 melanoma): 3.55 µM
- GI50 (786-0 renal): 2220 nM
- TGI (786-0 renal): 9.36 µM
- GI50 (SNB-19 CNS): 1940 nM
- TGI (SNB-19 CNS): 15.7 µM
- GI50 (OVCAR-3 ovarian): 462 nM
- TGI (OVCAR-3 ovarian): 2470 nM
- GI50 (MDA-MB-231 breast): 700 nM
- TGI (MDA-MB-231 breast): 4.86 µM
- GI50 (RXF 393 renal): 2510 nM
- TGI (RXF 393 renal): 13.5 µM
- GI50 (SF-295 CNS): 1560 nM
- TGI (SF-295 CNS): 3.06 µM
- GI50 (HS 578T breast): 1110 nM
- TGI (HS 578T breast): 9.06 µM
- GI50 (BT-549 breast): 1670 nM
- TGI (BT-549 breast): 6.41 µM
- GI50 (SK-OV-3 ovarian): 2100 nM
- TGI (SK-OV-3 ovarian): 10.3 µM
- GI50 (SNB-75 CNS): > 100 µM
- TGI (SNB-75 CNS): > 100 µM
- GI50 (HOP-62 NSCLC): 2170 nM
- TGI (HOP-62 NSCLC): 5.87 µM
- GI50 (OVCAR-8 ovarian): 1090 nM
- TGI (OVCAR-8 ovarian): 5.63 µM
- GI50 (HT29 colon): 3.7 µM
- TGI (HT29 colon): 12.6 µM
- GI50 (TK-10 renal): 4.34 µM
- TGI (TK-10 renal): 25.8 µM
- GI50 (MOLT-4 leukemia): 435 nM
- TGI (MOLT-4 leukemia): 2990 nM
- GI50 (KM12 colon): 1410 nM
- TGI (KM12 colon): 3.36 µM
- GI50 (CCRF-CEM leukemia): 571 nM
- TGI (CCRF-CEM leukemia): 7.25 µM
- GI50 (HCT-15 colon): 2020 nM
- TGI (HCT-15 colon): 10.3 µM
- GI50 (NCI-H23 lung): 1720 nM
- TGI (NCI-H23 lung): 6.71 µM
- GI50 (OVCAR-5 ovarian): 4.22 µM
- TGI (OVCAR-5 ovarian): 16.5 µM
- GI50 (NCI-H226 lung): 2830 nM
- TGI (NCI-H226 lung): 11.3 µM
- GI50 (UACC-62 melanoma): 1390 nM
- TGI (UACC-62 melanoma): 3.59 µM
- GI50 (SW-620 colon): 1600 nM
- TGI (SW-620 colon): 10.3 µM
- GI50 (NCI-H522 lung): 473 nM
- TGI (NCI-H522 lung): 4.09 µM
- GI50 (UACC-257 melanoma): 1650 nM
- TGI (UACC-257 melanoma): 4.49 µM
